# Where two headings read alike, the source gives them in different places.
# Legend:
# RS11846 cells = experiment: chemotaxis 96 transwell assay; type: cell-based; settings: 3 hr migration
# Procedure: (§1) B cells (RS11846 or EBV-infected human B-cells) or murine bone marrow-derived dendritic cells were washed once with medium and resuspended at 1×10^6/ml. 100 μl of this suspension was added into the wells of the filter plate and gently placed into the receiver plate containing 150 μl of a given compound dilution. The final DMSO concentration was less then 0.1%. After migration for 3 hr at 37° C. in an incubator, the filter plate was carefully removed from the receiver plate and discarded. The migrated cells in the receiver plate were resuspended and transferred into round-bottom 96-well plate, centrifuged and resuspended in 100 μl PBS containing 2% FCS and 0.1% NaN3 (FACS buffer). The input cells (100 μl) were similarly processed. For the calculation of the specific migration, a fixed number of beads (10000; Invitrogen #PCB100)) in 20 μl FACS buffer was added and the suspension was analyzed by flow cytometry using a FACS instrument PAS™ (Partec). Cells were identified based on their forward scatter (FSC) and side scatter (SSC) pattern. Chemotaxis is expressed either as total cell number or as percent of input cells.
# hEBI2 = hEBI2 (Homo sapiens, UniProt P32249); experiment: aequorin assay, hEBI2 stably transfected CHO-AeqGα16 cells; type: cell-based; parameters: expressed in transfected cells; host or cells: CHO-K1 expressing apoaequorin (CHO-Aeq) with Gqi5; line E2
# Sequence of hEBI2 (P32249 whole entry): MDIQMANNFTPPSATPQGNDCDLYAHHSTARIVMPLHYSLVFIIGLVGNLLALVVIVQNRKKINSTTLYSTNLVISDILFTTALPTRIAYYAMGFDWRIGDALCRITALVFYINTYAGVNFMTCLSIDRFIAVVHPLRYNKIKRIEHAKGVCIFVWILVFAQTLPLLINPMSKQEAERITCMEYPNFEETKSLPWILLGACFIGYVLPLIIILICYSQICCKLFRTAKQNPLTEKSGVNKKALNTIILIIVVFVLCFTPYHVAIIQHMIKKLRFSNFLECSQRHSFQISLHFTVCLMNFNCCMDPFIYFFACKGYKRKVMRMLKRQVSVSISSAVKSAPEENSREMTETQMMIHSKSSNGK
# Procedure: Stable cell line expressing human EBI2 (in pcDNA3.1 vector) and Gα16 was generated with parental CHO cells that stably express apo-aequorin (Euroscreen CHO-A12 cell line). The cells were seeded into 384 well black clear bottom plates (Greiner Bio-one) at 10,000 cells/25 μl well in F12 medium containing 3% FBS and incubated overnight. Coelenterazine (20 μM final) was added into the cell plates at 25 μl/well. The cell plates were returned to incubator for 3 hrs. The compounds were diluted 1:20 into an intermediate plate with Tyrode buffer (130 mM NaCl, 2 mM CaCl2, 5 mM NaHCO3, 5 mM KCl, 1 mM MgCl2, 20 mM HEPES, pH 7.4). 12.5 μl/well of pre-diluted compounds were transfered into the cell assay plate and read on LumiLux™ (Perkin Elmer) for flash luminescence.
# An algorithm similar to area under curve (AUC) was created in house to analyze the aequorin kinetic data, which was named Slope Threshold (Slope 100). The algorithm defines the beginning and the end of the luminescence intensity peak by comparing the difference in intensity of each time point with an earlier time point, and determining if the difference exceeds a defined threshold, which was usually set at 100. If it does, then the intensity of the later time point is added into the Slope Threshold's sum.
# [1] = tested on: mouse bone marrow-derived dendritic cells (wild type); experiment: chemotaxis assay, wild type dendritic cells; type: cell-based
# Procedure: as §1
# (§2) In order to generate sufficient numbers of dendritic cells (DC) we isolated bone marrow from wild type and EBI2-deficient mice (Deltagen) and treated them in culture for 7-8 days with murine IL4 and murine GM-CSF. […]
# [2] = tested on: bone marrow-derived dendritic cells from EBI2(−/−) mice; experiment: chemotaxis assay, EBI2(−/−) dendritic cells; type: cell-based, mouse
# Procedure: as §1, §2
# [3] = tested on: 26 GPCR binding assays, 9 GPCR functional assays, 40 kinase assays, ion channels, proteases, transporter and enzyme assays; settings: data not shown
# Text: So far oxysterols have been noted to have various physiological activities namely regulate the expression of genes that participate in both sterol and fat metabolism, serve as substrates for the synthesis of bile acids, and are intermediates in the transfer of sterols from the periphery to the liver (Russell, D. W. (2000). Oxysterol biosynthetic enzymes. Biochim. Biophys. Acta 1529, 126-135). […] This included binding assays for 26 different GPCRs, functional assays of 9 different GPCRs, 40 kinase assays, as well as selected ion channels, proteases, transporter and enzyme assays.
# [4] = tested on: MAP/ERK signal in parental CHO cell line; experiment: Western blot of MAP/ERK phosphorylation, parental CHO cell line without human EBI2; type: cell-based, Chinese hamster; settings: high concentrations
# Procedure: (§3) Cells (E2=CHO/AEQ/Gqi5/hEBI2) were seeded at 2×10^5 cell/well in a 12 well plate (TPP #92012) and incubated at 37° C./5% CO2 overnight. The next day medium was removed and cells were starved in serum-free medium for 4 h. Subsequently compound was added for 5 min at RT before cells were lysed (70 ul, 0.5% Triton-X100, 300 mM NaCl, 50 mM Tris pH7.5, Complete™ protease inhibitor cocktail Roche #04693124001). Cell lysates were resolved by gradient SDS-PAGE (NuPage™4-12%, #NP0322Box), transferred by semi-dry blotting to nitrocellulose (Invitrogen, #LC2001) and probed with a phospho p42/44 MAPK (T202/Y204) rabbit mAb (Cell Signalling #4376S). After treatment with a secondary goat anti rabbit-HRP (Pierce #41460) antibody the blots were developed for chemiluminescence (SuperSignal West Dura™, Pierce #34075) and visualized using a BioRad GEL DOC™ imaging system.
# [5] = tested on: MAP/ERK signaling pathway (p44/42 MAP kinase); experiment: Western blot of MAP/ERK phosphorylation, EBI2 expressing CHO cell line; type: cell-based, Chinese hamster; settings: 5 min after compound addition
# Procedure: as §3
# mouse EBI2 receptor = biological target: T1, mouse EBI2 receptor (Mus musculus, UniProt Q3U6B2); experiment: aequorin assay, mouse EBI2 CHO-Aeq cells; type: cell-based
# T1 construct: expressed in transfected cells; host or cells: CHO-K1 expressing apoaequorin (CHO-Aeq), Gqi5 or Gα16 background
# T1 sequence (Q3U6B2 whole entry): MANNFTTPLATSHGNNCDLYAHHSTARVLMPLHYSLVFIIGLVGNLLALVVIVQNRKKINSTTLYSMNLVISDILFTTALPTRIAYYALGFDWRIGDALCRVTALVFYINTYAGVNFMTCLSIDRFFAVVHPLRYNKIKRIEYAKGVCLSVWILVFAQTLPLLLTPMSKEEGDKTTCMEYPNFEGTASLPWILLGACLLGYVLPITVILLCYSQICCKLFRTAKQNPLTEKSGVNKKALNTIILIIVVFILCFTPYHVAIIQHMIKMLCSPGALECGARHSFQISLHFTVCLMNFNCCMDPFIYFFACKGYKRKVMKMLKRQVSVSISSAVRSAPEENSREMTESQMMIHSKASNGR
# Text: Human EBI2 gene was cloned using RT-PCR from HL-60 cDNA and corresponded to the Genbank accession number NP_004942. The human EBI2 was inserted into the pEFIN3 vector at the EcoRI and XbaI sites in the multiple cloning site. Mouse EBI2 was cloned using RT-PCR from mouse genomic DNA and corresponded to the Genbank accession number Q3U6B2. The mouse EBI2 was inserted into the pEFIN3 vector at the EcoRI and XbaI sites in the multiple cloning site. Plasmids expressing human and mouse EBI2 were stably transfected in CHO-K1 and HEK293 cells expressing the apoaequorin (CHO-Aeq and HEK-Aeq) (Table 1). mRNA sequence integrity of EBI2 gene was checked using RT-PCR at T0 & T30 culture times in CHO cells.
# We also confirmed activation of hEBI2 by 7b,25DHC in different CHO-Aeq cell backgrounds (Gqi5 and Gα16 (=WTA11)) (FIG. 14). […] Finally, we confirmed activation of hEBI2 by 7b,25DHC with hEBi2-HEK-Aeq Gα16 cells (pCAeqG9) and hEBi2 transiently transfected in HEK T cells (data not shown).
SMILES,attraction (migration) of RS11846 cells (RS11846 cells),EC50 (hEBI2) [nM],migration of DCs from wild type animals towards compound [1],migration of DCs from EBI2(−/−) mice towards compound [2],interaction in safety panel [3],activation of MAP/ERK signal in control cell line [4],activation of MAP/ERK signaling pathway (p44/42 MAP kinase phosphorylation) [5],"EC50 (hEBI2; CHO-AeqGα16, read-out: EC50, activation of EBI2 (aequorin)) [nM]",activation of mouse EBI2 receptor (mouse EBI2 receptor)
"C[C@H](CCCC(C)(C)O)[C@H]1CC[C@H]2[C@@H]3[C@H](O)C=C4C[C@@H](O)CC[C@]4(C)[C@H]3CC[C@]12C [7a,25DHC, cholest-5-ene-3b,7a,25-triol]",potently attract,18.4,migrate,do not migrate,In none of these assay did we see a significant interaction,do not activate,potently activate,–,–
"C[C@H](CCCC(C)(C)O)[C@H]1CC[C@H]2[C@@H]3[C@@H](O)C=C4C[C@@H](O)CC[C@]4(C)[C@H]3CC[C@]12C [7b,25DHC, cholest-5-ene-3b,7b,25-triol]",–,–,–,–,–,–,–,398,activation

# Reference: patent US8497075B2, “Methods of identifying a modulator that inhibits the binding between Epstein-Barr virus induced receptor 2 and cholesterol derived ligands” (Novartis AG, priority 2008, dated 2013)
